Drawing on US12227496B2 (BRISTOL-MYERS SQUIBB COMPANY, priority 2019, dated 2025), this text covers EC50 for ten compounds.

The EC50 is the concentration at which the effect is half-maximal. Read a low EC50 as greater potency.

The target of the experiment is T1, human FXR (Homo sapiens, UniProt Q96RI1).
T1 construct: expressed in transfected cells; host or cells: HEK293 cells stably carrying a 5xGal4-response-element firefly luciferase reporter, transiently transfected with pcDNA3.1-Gal4-FXR
T1 sequence (Q96RI1 262-486 limits assumed): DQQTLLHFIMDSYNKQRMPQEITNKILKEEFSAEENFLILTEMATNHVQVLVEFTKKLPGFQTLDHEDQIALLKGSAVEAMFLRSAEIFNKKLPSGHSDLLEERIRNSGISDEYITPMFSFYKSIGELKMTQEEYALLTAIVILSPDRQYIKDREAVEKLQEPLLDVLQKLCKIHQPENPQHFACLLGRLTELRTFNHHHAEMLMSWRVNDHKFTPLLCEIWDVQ
The experiment in a line: transient human FXR/Gal4-luciferase reporter assay. It counts as cell-based. The following applies: Gal4-hFXR LBD fusion, luciferase reporter in HEK293 cells; response relative to 8 μM GW-4064. Summed up: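 HEK293 cells stably carrying a 5×Gal4-response-element firefly luciferase reporter were transiently transfected with Gal4-hFXR. They were then incubated overnight at 37 °C with compound serial dilutions in medium containing 10% charcoal/dextran-stripped FBS. Luminescence was read after Steady-Glo addition.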
`O=C(C1CCOCC1)N(CC12CCC(c3nc(C4CC4)no3)(CC1)CC2)c1cccc(-c2nc(CC3CC3)no2)c1` [Example 44, N-((4-(3-cyclopropyl-1,2,4-oxadiazol-5-yl)bicyclo[2.2.2]octan-1-yl)methyl)-N-(3-(3-(cyclopropylmethyl)-1,2,4-oxadiazol-5-yl)phenyl)tetrahydro-2H-pyran-4-carboxamide] showed an EC50 of 118 nM.

On to `O=C(C1CCOCC1)N(CC12CCC(c3nc(CC4CC4)no3)(CC1)CC2)c1cccc(-c2nc(C3CC3)no2)c1` [Example 45, N-(3-(3-cyclopropyl-1,2,4-oxadiazol-5-yl)phenyl)-N-((4-(3-(cyclopropylmethyl)-1,2,4-oxadiazol-5-yl)bicyclo[2.2.2]octan-1-yl)methyl)tetrahydro-2H-pyran-4-carboxamide], for which the concentration for a half-maximal effect (EC50) came out at 278 nM.

As for `O=C(C1CCC(F)(F)CC1)N(CC12CCC(c3nc(CC4CC4)no3)(CC1)CC2)c1cccc(-c2nc(C3CC3)no2)c1` [Example 46, N-(3-(3-cyclopropyl-1,2,4-oxadiazol-5-yl)phenyl)-N-((4-(3-(cyclopropylmethyl)-1,2,4-oxadiazol-5-yl)bicyclo[2.2.2]octan-1-yl)methyl)-4,4-difluorocyclohexane-1-carboxamide], the EC50 came to 633 nM.

`COCc1nc(-c2cccc(N(CC34CCC(c5nc(C6CC6)no5)(CC3)CC4)C(=O)C3CCOCC3)c2)cs1` [Example 47, N-((4-(3-cyclopropyl-1,2,4-oxadiazol-5-yl)bicyclo[2.2.2]octan-1-yl)methyl)-N-(3-(2-(methoxymethyl)thiazol-4-yl)phenyl)tetrahydro-2H-pyran-4-carboxamide] came in with a concentration giving a half-maximal response (EC50) of 121 nM.

On to `COCc1nc(-c2cccc(N(CC34CCC(c5nc(C6CC6)no5)(CC3)CC4)C(=O)C3CCN(C(=O)OC(C)(C)C)CC3)c2)cs1` [Example 48, tert-butyl 4-(((4-(3-cyclopropyl-1,2,4-oxadiazol-5-yl)bicyclo[2.2.2]octan-1-yl)methyl)(3-(2-(methoxymethyl)thiazol-4-yl)phenyl)carbamoyl)piperidine-1-carboxylate], for which the EC50 is 856 nM.

Regarding `COCc1nc(-c2cccc(N(CC34CCC(c5nc(C6CC6)no5)(CC3)CC4)C(=O)C3CCCCC3)c2)cs1` [Example 49, N-((4-(3-cyclopropyl-1,2,4-oxadiazol-5-yl)bicyclo[2.2.2]octan-1-yl)methyl)-N-(3-(2-(methoxymethyl)thiazol-4-yl)phenyl)cyclohexanecarboxamide], the EC50 turned out to be 105 nM.

In the case of `Cn1nc(-c2cccc(N(CC34CCC(c5nc(C6CC6)no5)(CC3)CC4)C(=O)C3CCOCC3)c2)cc1C1CC1` [Example 50, N-((4-(3-cyclopropyl-1,2,4-oxadiazol-5-yl)bicyclo[2.2.2]octan-1-yl)methyl)-N-(3-(5-cyclopropyl-1-methyl-1H-pyrazol-3-yl)phenyl)tetrahydro-2H-pyran-4-carboxamide], a half-maximal response (EC50) required 334 nM.

In turn, `CCn1cc(-c2cccc(N(CC34CCC(c5nc(C6CC6)no5)(CC3)CC4)C(=O)C3CCOCC3)c2)oc1=O` [Example 51, N-((4-(3-cyclopropyl-1,2,4-oxadiazol-5-yl)bicyclo[2.2.2]octan-1-yl)methyl)-N-(3-(3-ethyl-2-oxo-2,3-dihydrooxazol-5-yl)phenyl)tetrahydro-2H-pyran-4-carboxamide] yielded an EC50 of 1190 nM.

`COCc1coc(-c2cccc(N(CC34CCC(c5nc(C6CC6)no5)(CC3)CC4)C(=O)C3CCOCC3)c2)n1` [Example 53, N-((4-(3-cyclopropyl-1,2,4-oxadiazol-5-yl)bicyclo[2.2.2]octan-1-yl)methyl)-N-(3-(4-(methoxymethyl)oxazol-2-yl)phenyl)tetrahydro-2H-pyran-4-carboxamide]: the 50% effective concentration (EC50) was determined as 189 nM.

`O=C(C1CCOCC1)N(CC12CCC(c3nc(C4CC4)no3)(CC1)CC2)c1cccc(-c2nnc(C3CC3)o2)c1` [Example 54, N-((4-(3-cyclopropyl-1,2,4-oxadiazol-5-yl)bicyclo[2.2.2]octan-1-yl)methyl)-N-(3-(5-cyclopropyl-1,3,4-oxadiazol-2-yl)phenyl)tetrahydro-2H-pyran-4-carboxamide] returned an EC50 of 373 nM.
